Experimental data taken from patent publication US11083724B2, “Rimegepant for CGRP related disorders” (Biohaven Pharmaceutical Holding Company Ltd., priority 2018, dated 2021).

Columns and labels:
[1] = test system: subjects with Acute Migraines; assay: Pooled adverse event and liver function test data, Studies 301, 302 and 303; assay type: in vivo, human; conditions: for bilirubin elevations > 2 × ULN: across Studies 301, 302 and 303
[2] = test system: patients with migraine; assay: Study 201 (BHV3000-201, NCT03266588): open label long-term safety study, rimegepant 75 mg oral tablet; assay type: in vivo, human
Description: Clinical Trial-BHV3000-201: Open Label Safety Study in Acute Treatment of Migraine (ClinicalTrials.gov A phase 2⁄3 clinical study is conducted with about 2000 participants, as follows. The purpose of this study is to evaluate safety and tolerability of BHV3000 (rimegepant). Study Design • Study Type: Interventional (Clinical Trial) • Estimated Enrollment: 2000 participants • Intervention Model: Single Group Assignment • Masking: None (Open Label) • Primary Purpose: Treatment • Official Title: A Multicenter, Open Label Long-Term Safety Study of BHV3000 in the Acute Treatment of Migraine • Actual Study Start Date: Aug. 30, 2017 • Estimated Primary Completion Date: July 2019 • Estimated Study Completion Date: July 2019 Arms and Interventions Outcome Measures Primary Outcome Measures: 1. To assess the safety and tolerability of rimegepant (BHV-3000) by measuring the frequency and severity of adverse events and discontinuations due to adverse events [Time Frame: 52 weeks] Number of subjects with treatment-emergent adverse events as assessed through laboratory tests, ECGs, physical exam findings (safety and tolerability) Secondary Outcome Measures: 1. ALT or […] with total bilirubin>2×ULN [Time Frame: 52 weeks] elevated liver function tests 2. hepatic related adverse events and hepatic related adverse events that lead to discontinuation [Time Frame: 52 weeks] adverse events related to liver Results from the clinical trial described in Example 10 are summarized as follows. […] Patients were allowed to treat migraine attacks of all severities (mild to severe) up to once daily for a full year. The initial results for hepatic safety and tolerability of rimegepant 75 mg in study participants is based upon review of both adverse events and regularly scheduled liver function tests. Interim hepatic data were reviewed by an external and independent panel of liver experts. […] In the aggregate, it was noted that compared to migraine trials with drugs other than rimegepant, there was a very low incidence of overall elevations of liver function test abnormalities in rimegepant treated patients (1.0% incidence of serum ALT or […]). Subjects will continue to participate in Study 201 with additional data analyses to be submitted in the NDA and required 120-day safety updates.

[3] = pooled Studies 301, 302, 303, n = 1,771
[4] = pooled Studies 301, 302, 303, n = 1,771, AST elevation, not drug-related
[5] = pooled Studies 301, 302, 303, within 48 hours post-dose, n = 1,771

N[C@@H]1c2cccnc2[C@H](OC(=O)N2CCC(n3c(=O)[nH]c4ncccc43)CC2)CC[C@H]1c1cccc(F)c1F [Rimegepant, [(5S,6S,9R)-5-amino-6-(2,3-difluorophenyl)-6,7,8,9-tetrahydro-5H-cyclohepta[b]pyridin-9-yl] 4-(2-oxo-3H-imidazo[4,5-b]pyridin-1-yl)piperidine-1-carboxylate]
bilirubin elevations > 2 × ULN [1]: *AST/ALT Categories are not mutually exclusive; No bilirubin elevations > 2 × ULN across Studies 301, 302 and 303
bilirubin elevations > 2 × ULN ([1]; listed as rimegepant): no patients
drug-related Serious Adverse Events (SAEs) ([1]; pooled Studies 301, 302, 303): **No drug-related Serious Adverse Events (SAEs). 2 of the subjects with SAE in rimegepant group and 1 in placebo group had not been dosed before onset of SAE.
ALT or AST >3 × ULN, number of subjects [1, 3]: 2
ALT or AST >3 × ULN, percent of subjects [1, 3]: (0.1%)
ALT or AST >20 × ULN, number of subjects [1, 3]: 0
ALT or AST >ULN, number of subjects [1, 3]: 48
ALT or AST >ULN, percent of subjects [1, 3]: (2.7%)
SAEs, number of patients [1, 3]: 3
SAEs, percent of patients [1, 3]: 0.2%
ALT or AST >5 × ULN, number of subjects [1, 4]: 1
ALT or AST >5 × ULN, percent of subjects [1, 4]: (0.06%)^2
AE Nausea, number of patients [1, 5]: 26
AE Nausea, percent of patients [1, 5]: 1.5%
AE UTI, number of patients [1, 5]: 21
AE UTI, percent of patients [1, 5]: 1.2%
≥1 On-Study AE, number of patients [1, 5]: 252
≥1 On-Study AE, percent of patients [1, 5]: 14.2%
>=20.0% decrease in migraines per month, number of subjects ([2]; Enrollment Group (2-8)): 353
>=20.0% decrease in migraines per month, percent of subjects ([2]; Enrollment Group (2-8)): 35.2%
>=25.0% decrease in migraines per month, number of subjects ([2]; Enrollment Group (2-8)): 308
>=25.0% decrease in migraines per month, percent of subjects ([2]; Enrollment Group (2-8)): 30.7%
>=30.0% decrease in migraines per month, number of subjects ([2]; Enrollment Group (2-8)): 268
>=30.0% decrease in migraines per month, percent of subjects ([2]; Enrollment Group (2-8)): 26.7%
>=35.0% decrease in migraines per month, number of subjects ([2]; Enrollment Group (2-8)): 224
>=35.0% decrease in migraines per month, percent of subjects ([2]; Enrollment Group (2-8)): 22.3%
>=40.0% decrease in migraines per month, number of subjects ([2]; Enrollment Group (2-8)): 181
>=40.0% decrease in migraines per month, percent of subjects ([2]; Enrollment Group (2-8)): 18.0%
>=45.0% decrease in migraines per month, number of subjects ([2]; Enrollment Group (2-8)): 144
>=45.0% decrease in migraines per month, percent of subjects ([2]; Enrollment Group (2-8)): 14.3%
>=50.0% decrease in migraines per month, number of subjects ([2]; Enrollment Group (2-8)): 113
>=50.0% decrease in migraines per month, percent of subjects ([2]; Enrollment Group (2-8)): 11.3%
>=20.0% decrease in migraines per month, number of subjects ([2]; Enrollment Group (4-14), n 269): 159
>=20.0% decrease in migraines per month, percent of subjects ([2]; Enrollment Group (4-14), n 269): 59.1%
>=25.0% decrease in migraines per month, number of subjects ([2]; Enrollment Group (4-14), n 269): 144
>=25.0% decrease in migraines per month, percent of subjects ([2]; Enrollment Group (4-14), n 269): 53.5%
>=30.0% decrease in migraines per month, number of subjects ([2]; Enrollment Group (4-14), n 269): 130
>=30.0% decrease in migraines per month, percent of subjects ([2]; Enrollment Group (4-14), n 269): 48.3%
>=35.0% decrease in migraines per month, number of subjects ([2]; Enrollment Group (4-14), n 269): 117
>=35.0% decrease in migraines per month, percent of subjects ([2]; Enrollment Group (4-14), n 269): 43.5%
>=40.0% decrease in migraines per month, number of subjects ([2]; Enrollment Group (4-14), n 269): 100
>=40.0% decrease in migraines per month, percent of subjects ([2]; Enrollment Group (4-14), n 269): 37.2%
>=45.0% decrease in migraines per month, number of subjects ([2]; Enrollment Group (4-14), n 269): 83
>=45.0% decrease in migraines per month, percent of subjects ([2]; Enrollment Group (4-14), n 269): 30.9%
>=50.0% decrease in migraines per month, number of subjects ([2]; Enrollment Group (4-14), n 269): 67
>=50.0% decrease in migraines per month, percent of subjects ([2]; Enrollment Group (4-14), n 269): 24.9%
>=20.0% decrease in migraines per month, number of subjects ([2]; Enrollment Group (9-14), n 458): 171
>=20.0% decrease in migraines per month, percent of subjects ([2]; Enrollment Group (9-14), n 458): 37.3%
>=25.0% decrease in migraines per month, number of subjects ([2]; Enrollment Group (9-14), n 458): 150
>=25.0% decrease in migraines per month, percent of subjects ([2]; Enrollment Group (9-14), n 458): 32.8%
>=30.0% decrease in migraines per month, number of subjects ([2]; Enrollment Group (9-14), n 458): 125
>=30.0% decrease in migraines per month, percent of subjects ([2]; Enrollment Group (9-14), n 458): 27.3%
>=35.0% decrease in migraines per month, number of subjects ([2]; Enrollment Group (9-14), n 458): 101
>=35.0% decrease in migraines per month, percent of subjects ([2]; Enrollment Group (9-14), n 458): 22.1%
>=40.0% decrease in migraines per month, number of subjects ([2]; Enrollment Group (9-14), n 458): 81
>=40.0% decrease in migraines per month, percent of subjects ([2]; Enrollment Group (9-14), n 458): 17.7%
>=45.0% decrease in migraines per month, number of subjects ([2]; Enrollment Group (9-14), n 458): 60
>=45.0% decrease in migraines per month, percent of subjects ([2]; Enrollment Group (9-14), n 458): 13.1%
>=50.0% decrease in migraines per month, number of subjects ([2]; Enrollment Group (9-14), n 458): 46
>=50.0% decrease in migraines per month, percent of subjects ([2]; Enrollment Group (9-14), n 458): 10.0%
>=20.0% decrease (reduction in headache days per month of at least 20%), number of subjects ([2]; Overall, of 1731 subjects): 683
>=20.0% decrease (reduction in headache days per month of at least 20%), percent of subjects ([2]; Overall, of 1731 subjects): 39.5%
>=25.0% decrease (reduction in headache days per month of at least 25%), number of subjects ([2]; Overall, of 1731 subjects): 602
>=25.0% decrease (reduction in headache days per month of at least 25%), percent of subjects ([2]; Overall, of 1731 subjects): 34.8%
>=30.0% decrease (reduction in headache days per month of at least 30%), number of subjects ([2]; Overall, of 1731 subjects): 523
>=30.0% decrease (reduction in headache days per month of at least 30%), percent of subjects ([2]; Overall, of 1731 subjects): 30.2%
>=35.0% decrease (reduction in headache days per month of at least 35%), number of subjects ([2]; Overall, of 1731 subjects): 442
>=35.0% decrease (reduction in headache days per month of at least 35%), percent of subjects ([2]; Overall, of 1731 subjects): 25.5%
>=40.0% decrease (reduction in headache days per month of at least 40%), number of subjects ([2]; Overall, of 1731 subjects): 362
>=40.0% decrease (reduction in headache days per month of at least 40%), percent of subjects ([2]; Overall, of 1731 subjects): 20.9%
>=45.0% decrease (reduction in headache days per month of at least 45%), number of subjects ([2]; Overall, of 1731 subjects): 287
>=45.0% decrease (reduction in headache days per month of at least 45%), percent of subjects ([2]; Overall, of 1731 subjects): 16.6%
>=50.0% decrease (reduction in headache days per month of at least 50%), number of subjects ([2]; Overall, of 1731 subjects): 226
>=50.0% decrease (reduction in headache days per month of at least 50%), percent of subjects ([2]; Overall, of 1731 subjects): 13.1%
headache days per month, treatment phase versus observation phase ([2]; Study 201): fewer headache days per month
Hy's Law cases ([2]; Study 201 interim analysis): no Hy's Law cases
liver cases assessed as probably related to study drug ([2]; Study 201 interim analysis): no liver cases
incidence of serum ALT or AST >3×ULN ([2]; Study 201 interim analysis, 75 mg up to once daily): 1.0%
liver safety signal ([2]; Study 201 interim, including near-daily dosing (≥15 doses/month)): no liver safety signal detected
